Experimental data: patent US4675404A, “8-pyridazinylcarbamoyl ergolines” (Farmitala Carlo Erba S.p.A., priority 1981, dated 1987)
Read-outs that look alike come from different tables or passages of the source.

Key:
[1] = system: reserpine-induced hypothermia; test: antagonism to reserpine-induced hypothermia; format: in vivo, male mice; conditions: Mus musculus, po, 5 h; mice; p.o. by gavage 1 h before reserpine 1.5 mg/kg i.p.; rectal temperature 2 h after blepharospasm evaluation
Method: (§1) The antidepressant activity of the ergoline derivatives according to the invention can be evaluated by antagonism to reserpine-induced blepharospasm and hypothermia.
(§2) The tests were performed in an air-conditioned room at a constant termperature of 19°±1° C. Randomized groups of male mice were respectively treated by gavage with appropriate screening doses (from a maximum of 25 mg/kg below) of the test compounds, suspended in the vehicle (Methocel 0.5%; 1 ml/100 g b.w.), or with the vehicle alone. One hour later the animals received an i.p. injection of reserpine (1.5 mg/kg; 1 ml/100 g b.w.), and one of the control groups the same volume of the vehicle alone (blank controls).
(§3) Three hours after pretreatments, i.e. two hours after reserpine or vehicle treatments, blepharospasm was evaluated in scores as proposed by Rubin et al. (J. Pharmacol. 120, 125 (1957)). Two hours after the above mentioned evaluation the rectal temperature of the animals was recorded by an appropriate probe connected to a digital thermometer (Ellab DU-3).

[2] = system: reserpine-induced blepharospasm; test: antagonism to reserpine-induced blepharospasm; format: in vivo, male mice; conditions: Mus musculus, po, 3 h, read-out: Reserpine antagonism ED50, Blepharospasm
Method: as §1, §2, §3

[3] = orientative acute toxicity; conditions: in vivo, po

Structure (SMILES)	ED50 [1] [mg/kg]	ED50 [2] [mg/kg]	LD50 [3] [mg/kg]	ED50 ([2]; mice, p.o. by gavage 1 h before reserpine 1.5 mg/kg i.p., scored 2 h after reserpine) [mg/kg]
C=CCN1C[C@H](C(=O)Nc2ccc(Cl)nn2)C[C@@H]2c3cccc4[nH]cc(c34)C[C@H]21 [Example 5, 6-allyl-8β-(6-chloro-3-pyridazinyl-carbamoyl)-ergoline]	4.5	3.6	> 600	–
C=CCN1C[C@H](C(=O)Nc2nccs2)C[C@@H]2c3cccc4[nH]cc(c34)C[C@H]21 [Example 6, 6-allyl-8β-(2-thiazolyl-carbamoyl)-ergoline]	4	2.5	> 300	–
CN1C[C@H](C(=O)Nc2nccs2)C[C@@H]2c3cccc4c3c(cn4C)C[C@H]21 [1,6-dimethyl-8β-(2-thiazolyl-carbamoyl)-ergoline, reference compound]	15	7	–	–
Cc1[nH]c2cccc3c2c1C[C@@H]1[C@@H]3C[C@@H](C(=O)Nc2ccc(Cl)nn2)CN1C [Example 4, 2,6-dimethyl-8β-(6-chloro-3-pyridazinyl-carbamoyl)-ergoline]	0.6	0.2	> 300	–
Cc1nnc(NC(=O)[C@@H]2C[C@@H]3c4cccc5[nH]cc(c45)C[C@H]3N(C)C2)s1 [Example 10, 6-methyl-8β-[2-(5-methyl-1,3,4-thiadiazolyl)-carbamoyl]-ergoline]	3.1	3.5	> 600	–
CN(C)CCCN1c2ccccc2CCc2ccccc21 [Imipramine, reference compound]	18.2	–	–	8.1
Cc1nnc(NC(=O)[C@@H]2C[C@@H]3c4cccc5[nH]c(C)c(c45)C[C@H]3N(C)C2)s1 [Example 16, 2,6-dimethyl-8β-[2-(5-methyl-1,3,4-thiadiazolyl)-carbamoyl]-ergoline]	1.7	1	> 800	–
CCCN1C[C@H](C(=O)Nc2nccs2)C[C@@H]2c3cccc4[nH]cc(c34)C[C@H]21 [Example 7, 6-propyl-8β-(2-thiazolyl-carbamoyl)-ergoline]	0.6	0.5	> 300	–
